Assay results taken from ChEMBL document CHEMBL1201862, “PubChem BioAssay data set” (2004).
Activity calls are given as the source filed them.

How the values were obtained:
[1] = target: T1, Trace amine-associated receptor 1 (Homo sapiens, UniProt Q96RJ0); assay: Counterscreen for agonists of the human trace amine associated receptor 1 (hTAAR1): Fluorescence-based cell-based high throughput dose response assay to identify hTAAR1 agonist that also desensitize TAAR1 receptor response.; type: functional
T1 sequence (Q96RJ0 whole entry): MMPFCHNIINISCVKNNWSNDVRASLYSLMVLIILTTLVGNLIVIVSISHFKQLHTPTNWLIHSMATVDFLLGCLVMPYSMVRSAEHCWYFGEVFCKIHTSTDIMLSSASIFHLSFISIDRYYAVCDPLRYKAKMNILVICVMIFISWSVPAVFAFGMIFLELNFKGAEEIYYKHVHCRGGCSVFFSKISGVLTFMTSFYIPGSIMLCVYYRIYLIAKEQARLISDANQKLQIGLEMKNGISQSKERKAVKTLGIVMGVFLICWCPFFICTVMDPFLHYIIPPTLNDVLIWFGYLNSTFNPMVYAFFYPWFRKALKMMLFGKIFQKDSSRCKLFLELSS

cells [2] = type: functional, cell-based
cells [3] = type: functional, cell-based; remark: listed apart in the source
[4] = target: T1, Trace amine-associated receptor 1; assay: Fluorescence-based cell-based high throughput dose response assay to identify agonists of the human trace amine associated receptor 1 (TAAR1).; type: functional
Galanin receptor type 3 = Galanin receptor type 3 (Homo sapiens, UniProt O60755); assay: Fluorescence-based cell-based primary high throughput dose response assay to identify antagonists of the Galanin Receptor 3 (GalR3).; type: functional
Sequence of Galanin receptor type 3 (O60755 whole entry): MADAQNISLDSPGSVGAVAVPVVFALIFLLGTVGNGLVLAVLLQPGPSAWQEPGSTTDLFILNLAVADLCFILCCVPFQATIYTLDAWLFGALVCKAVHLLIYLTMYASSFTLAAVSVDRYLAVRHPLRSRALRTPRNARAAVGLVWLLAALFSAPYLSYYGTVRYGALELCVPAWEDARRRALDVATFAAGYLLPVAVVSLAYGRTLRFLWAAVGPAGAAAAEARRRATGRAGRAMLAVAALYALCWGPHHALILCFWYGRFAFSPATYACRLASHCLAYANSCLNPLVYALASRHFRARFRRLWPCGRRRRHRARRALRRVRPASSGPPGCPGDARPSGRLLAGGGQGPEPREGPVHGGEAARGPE

Cytochrome P450 2C9 = Cytochrome P450 2C9 (Homo sapiens, UniProt P11712)
Sequence of Cytochrome P450 2C9 (P11712 whole entry): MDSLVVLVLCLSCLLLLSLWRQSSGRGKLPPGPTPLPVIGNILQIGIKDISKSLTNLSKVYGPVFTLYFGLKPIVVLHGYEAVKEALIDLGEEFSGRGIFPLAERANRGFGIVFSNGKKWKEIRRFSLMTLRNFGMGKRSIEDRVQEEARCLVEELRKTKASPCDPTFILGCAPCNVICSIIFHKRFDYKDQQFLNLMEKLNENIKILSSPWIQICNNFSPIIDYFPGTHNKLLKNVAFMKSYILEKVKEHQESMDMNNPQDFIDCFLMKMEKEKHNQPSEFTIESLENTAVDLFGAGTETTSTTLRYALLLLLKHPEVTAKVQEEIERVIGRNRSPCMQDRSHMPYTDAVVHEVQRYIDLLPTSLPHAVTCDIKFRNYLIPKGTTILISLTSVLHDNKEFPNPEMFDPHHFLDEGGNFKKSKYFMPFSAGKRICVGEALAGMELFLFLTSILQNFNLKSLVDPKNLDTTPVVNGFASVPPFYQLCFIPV

cells [5] = type: functional, cell-based; settings: HEK-CNG
HEK293 [6] = assay: cells; settings: Homo sapiens
Cytochrome P450 2D6 = Cytochrome P450 2D6 (Homo sapiens, UniProt P10635);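 further: CYP2D6 member of a cytochrome P450 panel assay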
Sequence of Cytochrome P450 2D6 (P10635 whole entry): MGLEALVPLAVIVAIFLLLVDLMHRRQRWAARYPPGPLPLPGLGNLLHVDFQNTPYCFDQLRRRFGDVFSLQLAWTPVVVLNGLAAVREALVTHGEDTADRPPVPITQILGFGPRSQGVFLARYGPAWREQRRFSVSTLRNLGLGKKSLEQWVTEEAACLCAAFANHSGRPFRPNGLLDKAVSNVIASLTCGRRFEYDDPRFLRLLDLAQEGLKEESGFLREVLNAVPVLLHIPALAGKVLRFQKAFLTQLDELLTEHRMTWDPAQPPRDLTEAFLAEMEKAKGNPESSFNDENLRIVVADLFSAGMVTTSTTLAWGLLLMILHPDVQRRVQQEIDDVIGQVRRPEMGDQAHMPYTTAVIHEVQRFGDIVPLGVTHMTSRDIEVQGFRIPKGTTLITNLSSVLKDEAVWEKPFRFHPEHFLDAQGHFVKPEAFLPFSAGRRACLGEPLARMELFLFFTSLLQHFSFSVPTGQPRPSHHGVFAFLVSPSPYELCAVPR

Cytochrome P450 3A4 = Cytochrome P450 3A4 (Homo sapiens, UniProt P08684);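 further: CYP3A4 tested as one member of a cytochrome P450 panel screen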
Sequence of Cytochrome P450 3A4 (P08684 whole entry): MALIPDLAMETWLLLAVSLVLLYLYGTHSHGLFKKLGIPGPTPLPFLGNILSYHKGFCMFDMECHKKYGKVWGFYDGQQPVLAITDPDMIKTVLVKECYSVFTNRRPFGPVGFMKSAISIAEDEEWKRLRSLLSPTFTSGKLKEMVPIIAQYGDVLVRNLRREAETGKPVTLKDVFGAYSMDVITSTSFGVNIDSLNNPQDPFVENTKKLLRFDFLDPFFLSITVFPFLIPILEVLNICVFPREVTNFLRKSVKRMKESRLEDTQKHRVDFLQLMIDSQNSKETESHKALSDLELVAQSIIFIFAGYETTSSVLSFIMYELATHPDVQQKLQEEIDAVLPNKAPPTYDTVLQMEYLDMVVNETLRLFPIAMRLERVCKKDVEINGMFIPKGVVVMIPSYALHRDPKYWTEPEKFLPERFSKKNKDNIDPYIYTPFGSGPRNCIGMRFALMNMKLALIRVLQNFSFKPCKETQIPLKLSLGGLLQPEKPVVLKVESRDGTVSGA

HEK293 [7] = assay: cells; settings: Homo sapiens; remark: listed apart in the source
[8] = Counterscreen for inhibitors of Trypanosoma brucei methionyl tRNA synthetase (MetRS): Luminescence-based cell-based high throughput dose response assay to identify compounds that are cytotoxic to Jurkat human T lymphocyte cells.; type: functional
[9] = target: T2, Methionyl-tRNA synthetase, putative (Trypanosoma brucei brucei, UniProt Q38C91); type: functional, Trypanosoma brucei brucei strain 927/4 GUTat10.1
T2 sequence (Q38C91 whole entry): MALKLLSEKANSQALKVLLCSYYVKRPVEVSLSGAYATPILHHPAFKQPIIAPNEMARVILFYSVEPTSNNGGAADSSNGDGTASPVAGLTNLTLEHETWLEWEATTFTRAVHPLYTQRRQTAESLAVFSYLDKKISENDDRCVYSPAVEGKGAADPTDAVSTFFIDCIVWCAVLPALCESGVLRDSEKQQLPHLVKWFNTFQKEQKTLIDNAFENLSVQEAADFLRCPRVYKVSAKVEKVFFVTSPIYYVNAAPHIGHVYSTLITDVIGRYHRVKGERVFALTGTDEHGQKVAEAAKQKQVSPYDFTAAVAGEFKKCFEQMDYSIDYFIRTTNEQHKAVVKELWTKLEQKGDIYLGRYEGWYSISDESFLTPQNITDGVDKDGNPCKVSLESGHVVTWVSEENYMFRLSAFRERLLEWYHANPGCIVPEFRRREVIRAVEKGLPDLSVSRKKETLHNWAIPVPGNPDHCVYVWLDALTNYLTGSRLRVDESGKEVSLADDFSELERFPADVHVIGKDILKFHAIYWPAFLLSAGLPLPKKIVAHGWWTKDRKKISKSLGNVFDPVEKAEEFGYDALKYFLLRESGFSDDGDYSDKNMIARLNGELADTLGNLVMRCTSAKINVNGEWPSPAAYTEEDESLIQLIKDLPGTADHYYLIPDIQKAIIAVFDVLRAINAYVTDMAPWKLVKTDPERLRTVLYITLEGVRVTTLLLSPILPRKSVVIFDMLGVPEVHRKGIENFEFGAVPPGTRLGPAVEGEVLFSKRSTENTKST

[10] = target: T2, Methionyl-tRNA synthetase, putative; type: functional, Trypanosoma brucei brucei strain 927/4 GUTat10.1; remark: listed apart in the source
[11] = target: SWI/SNF-related matrix-associated actin-dependent regulator of chromatin subfamily A member 2 (Homo sapiens, UniProt P51531); assay: Luminescence-based cell-based high throughput dose response assay to identify activators of the function of SWI/SNF related, matrix associated, actin dependent regulator of chromatin, subfamily a, member 2 (SMARCA2, BRM).; type: functional
Sequence of SWI/SNF-related matrix-associated actin-dependent regulator of chromatin subfamily A member 2 (P51531 whole entry): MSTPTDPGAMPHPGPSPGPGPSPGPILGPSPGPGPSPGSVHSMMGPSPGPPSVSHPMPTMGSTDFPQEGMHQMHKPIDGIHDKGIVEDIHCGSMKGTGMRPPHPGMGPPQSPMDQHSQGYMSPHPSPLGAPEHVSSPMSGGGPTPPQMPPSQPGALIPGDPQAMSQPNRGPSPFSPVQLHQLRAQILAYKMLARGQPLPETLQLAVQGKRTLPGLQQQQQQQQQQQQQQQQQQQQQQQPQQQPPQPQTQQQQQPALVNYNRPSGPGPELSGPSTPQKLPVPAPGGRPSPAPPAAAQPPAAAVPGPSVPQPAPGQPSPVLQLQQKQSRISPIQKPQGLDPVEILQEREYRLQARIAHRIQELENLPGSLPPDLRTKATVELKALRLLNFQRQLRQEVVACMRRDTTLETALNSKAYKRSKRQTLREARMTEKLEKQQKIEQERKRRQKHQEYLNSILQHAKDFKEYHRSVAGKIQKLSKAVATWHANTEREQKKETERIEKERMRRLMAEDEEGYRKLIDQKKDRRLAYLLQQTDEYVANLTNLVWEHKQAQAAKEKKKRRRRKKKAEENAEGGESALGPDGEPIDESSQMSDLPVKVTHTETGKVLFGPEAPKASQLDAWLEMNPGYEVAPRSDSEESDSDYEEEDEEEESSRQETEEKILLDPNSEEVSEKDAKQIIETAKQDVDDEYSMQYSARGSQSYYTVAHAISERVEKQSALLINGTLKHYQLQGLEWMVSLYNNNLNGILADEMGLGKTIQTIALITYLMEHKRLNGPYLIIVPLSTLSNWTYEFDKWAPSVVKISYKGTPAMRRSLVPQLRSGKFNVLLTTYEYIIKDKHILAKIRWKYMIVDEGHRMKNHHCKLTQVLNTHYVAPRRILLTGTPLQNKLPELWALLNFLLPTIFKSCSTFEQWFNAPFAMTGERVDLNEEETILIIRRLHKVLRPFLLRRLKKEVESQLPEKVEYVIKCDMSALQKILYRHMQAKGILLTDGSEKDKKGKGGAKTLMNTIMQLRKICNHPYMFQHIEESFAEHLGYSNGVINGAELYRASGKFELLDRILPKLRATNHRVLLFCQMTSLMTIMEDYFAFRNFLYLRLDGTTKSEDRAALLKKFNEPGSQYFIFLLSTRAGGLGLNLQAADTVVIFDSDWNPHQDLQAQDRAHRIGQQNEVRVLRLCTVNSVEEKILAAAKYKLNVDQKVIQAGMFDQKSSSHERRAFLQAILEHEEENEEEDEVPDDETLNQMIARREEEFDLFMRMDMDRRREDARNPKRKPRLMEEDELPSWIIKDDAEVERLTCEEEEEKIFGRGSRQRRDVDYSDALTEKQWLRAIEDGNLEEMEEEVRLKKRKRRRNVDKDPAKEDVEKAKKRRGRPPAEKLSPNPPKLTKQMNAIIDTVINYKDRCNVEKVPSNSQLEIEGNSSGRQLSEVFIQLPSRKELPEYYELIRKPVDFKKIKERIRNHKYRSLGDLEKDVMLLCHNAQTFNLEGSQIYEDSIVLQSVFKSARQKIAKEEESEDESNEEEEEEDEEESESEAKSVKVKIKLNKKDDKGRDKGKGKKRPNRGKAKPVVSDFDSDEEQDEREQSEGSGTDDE

[12] = target: T3, Replicative DNA helicase DnaB (Mycobacterium tuberculosis, UniProt P9WMR3); assay: DnaB intein splicing inhibitors, dose response, biochemical, cell-free fluorescence (AID 449749); type: functional
T3 sequence (P9WMR3 whole entry): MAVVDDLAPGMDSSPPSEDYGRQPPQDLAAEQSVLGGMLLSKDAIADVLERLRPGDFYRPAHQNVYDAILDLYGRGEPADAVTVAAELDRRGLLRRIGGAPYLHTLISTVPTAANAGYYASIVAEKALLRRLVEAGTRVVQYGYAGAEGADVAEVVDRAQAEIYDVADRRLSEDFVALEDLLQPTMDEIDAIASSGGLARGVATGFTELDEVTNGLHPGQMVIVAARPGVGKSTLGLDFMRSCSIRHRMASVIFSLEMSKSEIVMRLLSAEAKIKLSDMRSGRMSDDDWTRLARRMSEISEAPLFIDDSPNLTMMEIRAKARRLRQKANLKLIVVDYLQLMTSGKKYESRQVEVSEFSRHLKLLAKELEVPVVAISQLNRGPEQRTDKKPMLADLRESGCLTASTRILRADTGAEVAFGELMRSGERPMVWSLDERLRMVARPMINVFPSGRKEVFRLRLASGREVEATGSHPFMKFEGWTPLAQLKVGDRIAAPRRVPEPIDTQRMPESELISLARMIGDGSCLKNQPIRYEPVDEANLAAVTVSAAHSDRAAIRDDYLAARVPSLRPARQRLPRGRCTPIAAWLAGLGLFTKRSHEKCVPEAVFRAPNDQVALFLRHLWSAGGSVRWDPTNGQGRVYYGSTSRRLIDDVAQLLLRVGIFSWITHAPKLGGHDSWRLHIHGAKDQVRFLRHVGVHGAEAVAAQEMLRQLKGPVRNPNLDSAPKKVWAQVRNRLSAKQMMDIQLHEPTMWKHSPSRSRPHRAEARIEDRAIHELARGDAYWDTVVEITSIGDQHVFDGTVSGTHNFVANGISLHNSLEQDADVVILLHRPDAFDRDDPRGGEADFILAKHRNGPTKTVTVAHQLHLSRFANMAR

Protein RecA = target: T4, Protein RecA (Mycobacterium tuberculosis, UniProt P9WHJ3); assay: Fluorescence Cell-Free Homogeneous Dose Retest to Identify Inhibitors of RecA-Intein Splicing Activity. [Related pubchem assays (depositor defined):AID2097, AID2223, AID489010, AID492950]; type: functional
T4 sequence (P9WHJ3 whole entry): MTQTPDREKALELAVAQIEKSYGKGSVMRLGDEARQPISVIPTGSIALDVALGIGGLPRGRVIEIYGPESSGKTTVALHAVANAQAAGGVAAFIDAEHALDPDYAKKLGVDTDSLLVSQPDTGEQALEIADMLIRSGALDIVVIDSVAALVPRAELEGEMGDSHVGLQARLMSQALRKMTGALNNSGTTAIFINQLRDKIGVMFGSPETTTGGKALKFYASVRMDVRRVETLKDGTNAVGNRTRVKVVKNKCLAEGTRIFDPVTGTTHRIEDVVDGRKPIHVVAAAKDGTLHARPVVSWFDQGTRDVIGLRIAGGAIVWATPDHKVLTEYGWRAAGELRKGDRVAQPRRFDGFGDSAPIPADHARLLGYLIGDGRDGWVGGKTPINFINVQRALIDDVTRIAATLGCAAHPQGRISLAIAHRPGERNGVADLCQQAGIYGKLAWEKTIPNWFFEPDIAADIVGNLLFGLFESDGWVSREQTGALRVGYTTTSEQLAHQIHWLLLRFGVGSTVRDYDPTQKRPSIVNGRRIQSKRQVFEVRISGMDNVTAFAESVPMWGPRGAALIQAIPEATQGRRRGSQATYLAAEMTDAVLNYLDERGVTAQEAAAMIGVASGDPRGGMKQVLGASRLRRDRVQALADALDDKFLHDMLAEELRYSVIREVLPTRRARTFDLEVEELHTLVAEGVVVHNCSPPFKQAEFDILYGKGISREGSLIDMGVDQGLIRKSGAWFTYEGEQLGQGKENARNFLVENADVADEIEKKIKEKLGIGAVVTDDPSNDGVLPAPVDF

[13] = Counterscreen for activators of the function of SWI/SNF related, matrix associated, actin dependent regulator of chromatin, subfamily a, member 2 (SMARCA2, BRM): Luminescence-based cell-based high throughput dose response assay to identify non-selective compounds using the VP16 reporter assay.; type: functional

## OCCNc1nc(Nc2ccccc2)nc2ccccc12
[1]
  IC50: 0.2 µM (active)
Cells [2]
  EC50: > 29.9 µM (inactive)
Cells [3]
  IC50: > 29.9 µM (inactive)
[4]
  EC50: 0.0634 µM (active)

## N#CCSc1nc(N)c(C#N)c(C2CCCCC2)c1C#N
Galanin receptor type 3
  IC50: 2.17 µM (active)
Cytochrome P450 2C9
  AC50: 12.6 µM (inconclusive)
Cells [5]
  EC50: > 29.9 µM (inactive)
HEK293 [6]
  EC50: > 59.6 µM (inactive)
Cytochrome P450 2D6
  AC50: 39.8 µM (inconclusive)
Cytochrome P450 3A4
  AC50: 3.16 µM (inconclusive)
HEK293 [7]
  EC50: > 59.6 µM (inactive)

## CS(=O)(=O)c1ccc(Cl)c(NC(=O)c2ccc(-n3cncn3)c([N+](=O)[O-])c2)c1
[8]
  IC50: 83.3 µM (inactive)
[9]
  IC50: 2.13 µM (active)
[10]
  IC50: 7.04 µM (active)

## Brc1ccc(Cn2c(-c3ccc(Br)o3)nc3ccccc32)o1
[11]
  EC50: > 91.2 µM (inactive)
[12]
  AC50: 147 µM (active)
Protein RecA
  EC50: 9.48 µM (active)
[13]
  EC50: > 91.2 µM (inactive)
